The supplement of paper PMC10307832

What was measured:
Experiment in all cases: relative viability (nuclei count vs DMSO), 5 days (fraction); higher = more cells survive
NCI-H596 = system: NCI-H596
Summary of the method: (§1)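 Dosing by pin tool came one day after lung cancer cell lines were seeded in 1536-well plates, using either one drug or a fixed anchor-drug dose plus five library-drug doses (not always all listed) in √10 steps. After 5 days, nuclei were counted on 4× images. Relative viability is treated-well nuclei count divided by vehicle-well nuclei count, and values are medians of duplicate plates.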

EPLC-272H = system: EPLC-272H
Summary of the method: as §1

NCI-H2087 = system: NCI-H2087
Summary of the method: as §1

HARA = system: HARA
Summary of the method: as §1

NCI-H441 = system: NCI-H441
Summary of the method: as §1

NCI-H661 = system: NCI-H661
Summary of the method: as §1

PC-14 = system: PC-14
Summary of the method: as §1

NCI-H1793 = system: NCI-H1793
Summary of the method: as §1

NCI-H2126 = system: NCI-H2126
Summary of the method: as §1

HCC-78 = system: HCC-78
Summary of the method: as §1

LCLC-97TM1 = system: LCLC-97TM1
Summary of the method: as §1

LXF-289 = system: LXF-289
Summary of the method: as §1

HOP-62 = system: HOP-62
Summary of the method: as §1

COR-L23 = system: COR-L23
Summary of the method: as §1

H3255 = system: H3255
Summary of the method: as §1

NCI-H1395 = system: NCI-H1395
Summary of the method: as §1

NCI-H3122 = system: NCI-H3122
Summary of the method: as §1

NCI-H2085 = system: NCI-H2085
Summary of the method: as §1

NCI-H1666 = system: NCI-H1666
Summary of the method: as §1

NCI-H1437 = system: NCI-H1437
Summary of the method: as §1

NCI-H1944 = system: NCI-H1944
Summary of the method: as §1

Question: With `Cc1cn(-c2cc(NC(=O)c3ccc(C)c(Nc4nccc(-c5cccnc5)n4)c3)cc(C(F)(F)F)c2)cn1` [Nilotinib] + C[C@]1(O)C[C@@H](c2nc(-c3ccc4ccc(-c5ccccc5)nc4c3)c3c(N)nccn32)C1 [Linsitinib] (partner 1 µM) as the molecule, how does the relative viability (NCI-H596; first compound 0.003162 µM) read?
Answer: 1.26

Question: What about the relative viability (NCI-H596; first compound 0.01 µM) of the same molecule?
Answer: 1.28

Question: What about the relative viability (NCI-H596; first compound 0.03162 µM) of the same molecule?
Answer: 0.812

Question: What about the relative viability (EPLC-272H; first compound 0.001 µM) of the same molecule?
Answer: 1.38

Question: What about the relative viability (EPLC-272H; first compound 0.003162 µM) of the same molecule?
Answer: 1.34

Question: And the relative viability (EPLC-272H; first compound 0.01 µM)?
Answer: 1.42

Question: And the relative viability (EPLC-272H; first compound 0.03162 µM)?
Answer: 1.08

Question: And the relative viability (EPLC-272H; first compound 0.1 µM)?
Answer: 1.18

Question: What about the relative viability (NCI-H2087; first compound 0.001 µM) of the same molecule?
Answer: 0.855

Question: And the relative viability (NCI-H2087; first compound 0.003162 µM)?
Answer: 0.949

Question: What about the relative viability (NCI-H2087; first compound 0.01 µM) of the same molecule?
Answer: 1.08

Question: What about the relative viability (NCI-H2087; first compound 0.03162 µM) of the same molecule?
Answer: 0.852

Question: And the relative viability (NCI-H2087; first compound 0.1 µM)?
Answer: 0.66

Question: What about the relative viability (HARA; first compound 0.001 µM) of the same molecule?
Answer: 0.987

Question: And the relative viability (HARA; first compound 0.003162 µM)?
Answer: 1.37

Question: What about the relative viability (HARA; first compound 0.01 µM) of the same molecule?
Answer: 1.3

Question: And the relative viability (HARA; first compound 0.03162 µM)?
Answer: 0.742

Question: What about the relative viability (HARA; first compound 0.1 µM) of the same molecule?
Answer: 0.93

Question: And the relative viability (NCI-H441; first compound 0.001 µM)?
Answer: 0.503

Question: What about the relative viability (NCI-H441; first compound 0.003162 µM) of the same molecule?
Answer: 0.588

Question: What about the relative viability (NCI-H441; first compound 0.01 µM) of the same molecule?
Answer: 0.482

Question: And the relative viability (NCI-H441; first compound 0.1 µM)?
Answer: 0.512

Question: What about the relative viability (NCI-H661; first compound 0.001 µM) of the same molecule?
Answer: 0.508

Question: And the relative viability (NCI-H661; first compound 0.003162 µM)?
Answer: 0.472

Question: And the relative viability (NCI-H661; first compound 0.01 µM)?
Answer: 0.612

Question: What about the relative viability (NCI-H661; first compound 0.03162 µM) of the same molecule?
Answer: 0.501

Question: What about the relative viability (NCI-H661; first compound 0.1 µM) of the same molecule?
Answer: 0.586

Question: What about the relative viability (PC-14; first compound 0.001 µM) of the same molecule?
Answer: 0.883

Question: What about the relative viability (PC-14; first compound 0.003162 µM) of the same molecule?
Answer: 1.05

Question: What about the relative viability (PC-14; first compound 0.01 µM) of the same molecule?
Answer: 1.07

Question: And the relative viability (PC-14; first compound 0.03162 µM)?
Answer: 0.898

Question: What about the relative viability (PC-14; first compound 0.1 µM) of the same molecule?
Answer: 1.01

Question: What about the relative viability (NCI-H1793; first compound 0.003162 µM) of the same molecule?
Answer: 1.09

Question: And the relative viability (NCI-H1793; first compound 0.01 µM)?
Answer: 1.41

Question: What about the relative viability (NCI-H1793; first compound 0.03162 µM) of the same molecule?
Answer: 0.734

Question: And the relative viability (NCI-H1793; first compound 0.1 µM)?
Answer: 0.443

Question: And the relative viability (NCI-H2126; first compound 0.001 µM)?
Answer: 0.684

Question: What about the relative viability (NCI-H2126; first compound 0.003162 µM) of the same molecule?
Answer: 0.806

Question: What about the relative viability (NCI-H2126; first compound 0.01 µM) of the same molecule?
Answer: 0.827

Question: What about the relative viability (NCI-H2126; first compound 0.03162 µM) of the same molecule?
Answer: 0.779

Question: What about the relative viability (NCI-H2126; first compound 0.1 µM) of the same molecule?
Answer: 0.666

Question: What about the relative viability (HCC-78; first compound 0.001 µM) of the same molecule?
Answer: 0.582

Question: And the relative viability (HCC-78; first compound 0.003162 µM)?
Answer: 0.522

Question: And the relative viability (HCC-78; first compound 0.01 µM)?
Answer: 0.637

Question: What about the relative viability (HCC-78; first compound 0.03162 µM) of the same molecule?
Answer: 0.612

Question: And the relative viability (HCC-78; first compound 0.1 µM)?
Answer: 0.604

Question: What about the relative viability (LCLC-97TM1; first compound 0.001 µM) of the same molecule?
Answer: 0.198

Question: What about the relative viability (LCLC-97TM1; first compound 0.003162 µM) of the same molecule?
Answer: 0.228

Question: What about the relative viability (LCLC-97TM1; first compound 0.01 µM) of the same molecule?
Answer: 0.276

Question: And the relative viability (LCLC-97TM1; first compound 0.03162 µM)?
Answer: 0.245

Question: And the relative viability (LCLC-97TM1; first compound 0.1 µM)?
Answer: 0.247

Question: And the relative viability (LXF-289; first compound 0.001 µM)?
Answer: 0.979

Question: And the relative viability (LXF-289; first compound 0.003162 µM)?
Answer: 1.15

Question: What about the relative viability (LXF-289; first compound 0.01 µM) of the same molecule?
Answer: 1.09

Question: What about the relative viability (LXF-289; first compound 0.03162 µM) of the same molecule?
Answer: 0.949

Question: And the relative viability (LXF-289; first compound 0.1 µM)?
Answer: 0.92

Question: And the relative viability (HOP-62; first compound 0.001 µM)?
Answer: 0.694

Question: What about the relative viability (HOP-62; first compound 0.003162 µM) of the same molecule?
Answer: 0.853

Question: What about the relative viability (HOP-62; first compound 0.01 µM) of the same molecule?
Answer: 0.863

Question: What about the relative viability (HOP-62; first compound 0.03162 µM) of the same molecule?
Answer: 0.715

Question: What about the relative viability (HOP-62; first compound 0.1 µM) of the same molecule?
Answer: 0.744

Question: And the relative viability (COR-L23; first compound 0.001 µM)?
Answer: 0.777

Question: And the relative viability (COR-L23; first compound 0.003162 µM)?
Answer: 1.18

Question: And the relative viability (COR-L23; first compound 0.01 µM)?
Answer: 1.24

Question: What about the relative viability (COR-L23; first compound 0.03162 µM) of the same molecule?
Answer: 0.781

Question: And the relative viability (COR-L23; first compound 0.1 µM)?
Answer: 0.903

Question: And the relative viability (H3255; first compound 0.001 µM)?
Answer: 0.817

Question: What about the relative viability (H3255; first compound 0.003162 µM) of the same molecule?
Answer: 1.06

Question: What about the relative viability (H3255; first compound 0.01 µM) of the same molecule?
Answer: 1.2

Question: And the relative viability (H3255; first compound 0.03162 µM)?
Answer: 0.875

Question: And the relative viability (H3255; first compound 0.1 µM)?
Answer: 0.952

Question: And the relative viability (NCI-H1395; first compound 0.001 µM)?
Answer: 1

Question: And the relative viability (NCI-H1395; first compound 0.003162 µM)?
Answer: 0.826

Question: What about the relative viability (NCI-H1395; first compound 0.01 µM) of the same molecule?
Answer: 1.07

Question: And the relative viability (NCI-H1395; first compound 0.03162 µM)?
Answer: 0.86

Question: And the relative viability (NCI-H1395; first compound 0.1 µM)?
Answer: 0.759

Question: And the relative viability (NCI-H3122; first compound 0.001 µM)?
Answer: 1.16

Question: What about the relative viability (NCI-H3122; first compound 0.003162 µM) of the same molecule?
Answer: 1.11

Question: And the relative viability (NCI-H3122; first compound 0.01 µM)?
Answer: 1.16

Question: And the relative viability (NCI-H3122; first compound 0.03162 µM)?
Answer: 0.894

Question: What about the relative viability (NCI-H3122; first compound 0.1 µM) of the same molecule?
Answer: 0.833

Question: And the relative viability (NCI-H2085; first compound 0.001 µM)?
Answer: 0.864

Question: What about the relative viability (NCI-H2085; first compound 0.003162 µM) of the same molecule?
Answer: 1.08

Question: What about the relative viability (NCI-H2085; first compound 0.01 µM) of the same molecule?
Answer: 1.15

Question: And the relative viability (NCI-H2085; first compound 0.03162 µM)?
Answer: 0.888

Question: What about the relative viability (NCI-H2085; first compound 0.1 µM) of the same molecule?
Answer: 0.884

Question: And the relative viability (NCI-H1666; first compound 0.001 µM)?
Answer: 0.854

Question: And the relative viability (NCI-H1666; first compound 0.003162 µM)?
Answer: 0.954

Question: What about the relative viability (NCI-H1666; first compound 0.01 µM) of the same molecule?
Answer: 0.74

Question: What about the relative viability (NCI-H1666; first compound 0.03162 µM) of the same molecule?
Answer: 0.911

Question: And the relative viability (NCI-H1666; first compound 0.1 µM)?
Answer: 0.945

Question: What about the relative viability (NCI-H1437; first compound 0.001 µM) of the same molecule?
Answer: 0.879

Question: What about the relative viability (NCI-H1437; first compound 0.003162 µM) of the same molecule?
Answer: 1.19

Question: And the relative viability (NCI-H1437; first compound 0.01 µM)?
Answer: 1.24

Question: What about the relative viability (NCI-H1437; first compound 0.03162 µM) of the same molecule?
Answer: 0.747

Question: And the relative viability (NCI-H1437; first compound 0.1 µM)?
Answer: 0.755

Question: What about the relative viability (NCI-H1944; first compound 0.001 µM) of the same molecule?
Answer: 1.08

Question: What about the relative viability (NCI-H1944; first compound 0.003162 µM) of the same molecule?
Answer: 1.41

Question: What about the relative viability (NCI-H1944; first compound 0.01 µM) of the same molecule?
Answer: 1.5

Question: What about the relative viability (NCI-H1944; first compound 0.03162 µM) of the same molecule?
Answer: 1.33

Question: And the relative viability (NCI-H1944; first compound 0.1 µM)?
Answer: 1.36
